Test results published in US20040018527A1, “Differential patterns of gene expression that predict for docetaxel chemosensitivity and chemo resistance” (priority 2002, published 2004).

Experiments:
[1] = system: MDA-MB-23 1 breast cancer cell line; details: MDA-MB-23 1 cells overexpressing heat shock protein 27; cited from earlier work
[2] = system: locally advanced breast cancer; test: phase II study with neoadjuvant docetaxel, clinical response (residual disease) after 4 cycles; type: in vivo, human
Description: From September 1999 to June 2001, patients with locally advanced breast cancer (primary cancers greater than 4 cm, or with clinically evident axillary metastases) were considered for a phase II study with neoadjuvant docetaxel. The inclusion criteria were 1) age greater than 18 years and a diagnosis of breast cancer confirmed by core needle biopsy, 2) premenopausal status accompanied by appropriate contraception, 3) adequate performance status, and 4) adequate liver and kidney function tests (all within 1.5 times the upper limit of normal). Exclusion criteria included 1) severe underlying chronic illness or disease, and 2) treatment with other chemotherapeutic drugs while on study.
Clinical staging and size of primary tumor was recorded at the start of treatment, at each cycle, and after completion of 4 cycles of chemotherapy. Tumor size (product of the two largest perpendicular diameters) measured before and after 4 cycles of neoadjuvant chemotherapy was used to compute the percentage of residual disease. The median residual disease was then calculated, and this degree of response was then used to divide the cancers into 2 groups of sensitive and resistant categories of approximately equal numbers before gene expression analysis.
Core biopsies of the primary cancers were undertaken before administration of single agent docetaxel as neoadjuvant treatment. Docetaxel at 100 mg/m2 was given every three weeks for a total of 4 cycles, and clinical response assessed after the fourth cycle, at 12 weeks. As the standard of care, patients were continued on neoadjuvant chemotherapy through the full 4 cycles unless there was clear documentation of progressive disease, defined as increase in tumor size of more than 25%. Primary surgery and standard adjuvant therapy was then administered following completion of neoadjuvant docetaxel. In order to maximize the likelihood of obtaining sufficient tissue, approximately six core biopsies using a Bard MaxCore Biopsy Instrument (#MC1410) were taken. Biopsies were performed under local anesthesia, using the same entry point, but reorienting the needle. Two to three core biopsy specimens were immediately transferred for snap freezing at −80° C. for cDNA array analysis. The remaining specimens were fixed in formalin for diagnostic and possible immunohistochemical analysis.
The clinical characteristics of the 24 patients enrolled in this phase II neoadjuvant study are included in Table 1. Before treatment, the median tumor size was 8 cm (range 4 to 30 cm). Prior to gene expression analysis, the sensitivity and resistance was defined based on the percentage of residual disease after treatment. It was determined that the median residual disease after chemotherapy was 30%. Then, it was arbitrarily defined that sensitive tumors were those with 25% residual disease or less and resistant tumors were those with greater than 25% residual disease, as this cut-off divides the numbers of patients almost equally into two groups for statistical comparison. In addition, the presenting tumors were large in this study of locally advanced breast cancer, and tumor regressions of at least 75% following chemotherapy would almost certainly represent clinically responsive disease.

[3] = system: HSP27-overexpressing cell lines; details: cited from earlier work

In the case of `COc1cccc2c1C(=O)c1c(O)c3c(c(O)c1C2=O)C[C@@](O)(C(=O)CO)C[C@@H]3O[C@H]1C[C@H](N)[C@H](O)[C@H](C)O1` [Adriamycin], the “association of HSP27 overexpression with drug resistance” value [1] is given as “resistance”.

With `CC(=O)O[C@@]12CO[C@@H]1C[C@H](O)[C@@]1(C)C(=O)[C@H](O)C3=C(C)[C@@H](OC(=O)[C@H](O)[C@@H](NC(=O)OC(C)(C)C)c4ccccc4)C[C@@](O)([C@@H](OC(=O)c4ccccc4)[C@H]21)C3(C)C` [docetaxel] the “resistant tumors with residual tumors 100% or greater of baseline” value ([2]; 3/13 resistant tumors) was 23%, the “sensitive tumors with minimal residual disease (<10% residual tumor)” value ([2]; 5/11 sensitive tumors) was 45% and the “residual disease, independent cohort” value ([2]; 6 additional patients of the same clinical study, all 6 sensitive tumors) was “less than 25%”. For the same compound, the “resistant tumors with residual tumors ≧60%” value ([2]; 7/13 resistant tumors) was 58%, the “patients sensitive to docetaxel (25% residual disease or less)” value ([2]; 11 of 24 patients) was 46% and the “patients resistant to docetaxel (greater than 25% residual disease)” value ([2]; 13 of 24 patients) was 54%. The “median residual disease after chemotherapy” value ([2]; 24 patients, docetaxel 100 mg/m2 every three weeks, 4 cycles, tumor size after vs before, at 12 weeks) was 30% and the sensitivity to docetaxel [3] was “remain sensitive”.
